Data published in the supplement of paper PMC10307832.

Tests used:
Test in all cases: relative viability (nuclei count vs DMSO), 5 days (fraction); higher = more cells survive
[1] = compound: Cc1cnc(CNC(=O)c2c(=O)c3ccc(N4CCCN(C)CC4)nc3n3c2sc2ccccc23)cn1 [CX-5461] + Cc1cc(Nc2cc(N3CCN(C)CC3)nc(Sc3ccc(NC(=O)C4CC4)cc3)n2)n[nH]1 [Tozasertib] (partner 0.1 µM)
Summary of the method: (§1)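 After 5 days of treatment, lung cancer cells in 1536-well plates were fixed and stained in a single step (final 0.05% Triton X-100, 1% formaldehyde, 1 ug/ml Hoechst) and their nuclei counted on 4× images. Treatment had been applied by pin tool the day after seeding as one drug alone or as a fixed anchor-drug dose with five library-drug doses (not always all listed) in √10 steps. Relative viability is the nuclei count of treated wells divided by that of vehicle wells, and values are medians of duplicate plates.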

[2] = compound: O=C(Nc1cc(C(F)(F)F)cc(C(F)(F)F)c1)c1cc(Cl)ccc1O [IMD-0354] + C[C@@H](Oc1cc(-c2cnn(C3CCNCC3)c2)cnc1N)c1c(Cl)ccc(F)c1Cl [Crizotinib] (partner 1 µM)
Summary of the method: as §1

[3] = compound: O=C(Nc1cc(C(F)(F)F)cc(C(F)(F)F)c1)c1cc(Cl)ccc1O [IMD-0354] + CC(C)C[C@H](NC(=O)[C@H](Cc1ccccc1)NC(=O)c1cnccn1)B(O)O [Bortezomib] (partner 0.002 µM)
Summary of the method: as §1

[4] = compound: Cc1cnc(CNC(=O)c2c(=O)c3ccc(N4CCCN(C)CC4)nc3n3c2sc2ccccc23)cn1 [CX-5461] + COc1cc2c(Oc3ccc(NC(=O)C4(C(=O)Nc5ccc(F)cc5)CC4)cc3F)ccnc2cc1OCCCN1CCOCC1 [Foretinib] (partner 0.25 µM)
Summary of the method: as §1

UMC-11
relative viability ([1]; first compound 0.01 µM): 0.189 | relative viability ([1]; first compound 0.03162 µM): 0.201 | relative viability ([1]; first compound 0.1 µM): 0.204 | relative viability ([1]; first compound 0.3162 µM): 0.198 | relative viability ([1]; first compound 1 µM): 0.243 | relative viability ([2]; first compound 0.04 µM): 0.701 | relative viability ([2]; first compound 0.1265 µM): 0.578 | relative viability ([2]; first compound 0.4 µM): 0.432 | relative viability ([2]; first compound 1.265 µM): 0.263 | relative viability ([2]; first compound 4 µM): 0.267 | relative viability ([3]; first compound 0.04 µM): 1.13 | relative viability ([3]; first compound 0.1265 µM): 0.796 | relative viability ([3]; first compound 0.4 µM): 0.465 | relative viability ([3]; first compound 1.265 µM): 0.237 | relative viability ([3]; first compound 4 µM): 0.212 | relative viability ([4]; first compound 0.01 µM): 1.02 | relative viability ([4]; first compound 0.03162 µM): 1.08 | relative viability ([4]; first compound 0.1 µM): 0.906 | relative viability ([4]; first compound 0.3162 µM): 1.15 | relative viability ([4]; first compound 1 µM): 0.336
